Source: patent publication US12479843B2, “Spiro ring-containing quinazoline compounds” (WIGEN BIOMEDICINE TECHNOLOGY (SHANGHAI) CO., LTD., priority 2019, dated 2025)

Assays:
[1] = tested on: pERK level in H358 cells; experiment: pERK and ERK protein content assay in H358 cells (ELISA); type: cell-based; settings: Homo sapiens, NCI-H358, compound 1 μM, 24 h, pERK/ERK ratio compared with DMSO group, read-out: Inhibition rate (%) of pERK level
Method in brief: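 Percent inhibition of pERK relative to DMSO, from the ELISA pERK/ERK ratio in lysed H358 cells. Compound applied at 1 μM for 24 h after one day of growth.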

[2] = tested on: H358 cells; experiment: Antiproliferative activity against H358 cells (Cell Titer Glow, ultra-low attachment plate); type: cell-based; settings: Homo sapiens, NCI-H358, 72 h, 96-well ultra-low attachment plate, three days after addition of compound, Cell Titer Glow
Description: 2500 H358 cells were seeded in a 96-well ultra-low attachment plate (corning, 7007). After one day of growth, a serially diluted compound (a maximum concentration of 5 μM, 5-fold dilution, a total of five doses) was added. Three days after the addition of the compound, Cell Titer Glow (Promega, G9681) was added to evaluate pellet growth, and the IC50 value was calculated.

Row | Structure (SMILES) | IC50 [2] | inhibition at 1 µM [1]
1 | C=CC(=O)N1CC2(CCN(c3nc(N4CC(N5CC[C@@H](C)C5)C4)nc4c(OCC(F)(F)F)c(-c5c(C)c(F)cc6[nH]ncc56)c(C5CC5)cc34)CC2)C1 [Compound 328] | < 300 nM | > 90%
2 | C=CC(=O)N1CC2(CCN(c3nc(OC4CCN(CCOC)CC4)nc4c(OCC(F)(F)F)c(-c5cc(O)cc6ccccc56)c(C5CC5)cc34)CC2)C1 [Compound 60] | < 300 nM | > 90%
3 | C=CC(=O)N1CC2(CCN(c3nc(N4CC5(C4)OCC[C@@H]5N(C)C)nc4c(OCC(F)(F)F)c(-c5c(C)ccc6[nH]ncc56)c(C5CC5)cc34)CC2)C1 [Compound 280] | < 300 nM | > 90%
4 | C=CC(=O)N1CC2(CCN(c3nc(OC4CCN(CCOC)CC4)nc4c(OCC(F)(F)F)c(-c5ccccc5C(F)(F)F)c(C5CC5)cc34)CC2)C1 [Compound 55] | < 300 nM | > 90%
5 | C=CC(=O)N1CC2(CCN(c3nc(O[C@@H]4C[C@@H]5C[C@H]4CS5(=O)=O)nc4c(OCC(F)(F)F)c(-c5c(C)ccc6[nH]ncc56)c(C5CC5)cc34)CC2)C1 [Compound 315] | < 300 nM | > 90%
6 | C=CC(=O)N1CC2(CCN(c3nc(N4CC(N5CC[C@@H](C)C5)C4)nc4c(OCC(F)F)c(-c5c(C)ccc6[nH]ncc56)c(C5CC5)cc34)CC2)C1 [Compound 334] | < 300 nM | > 90%
7 | C=CC(=O)N1CC2(CCN(c3nc(N4CC5(CCOCC5)C4)nc4c(OCC(F)(F)F)c(-c5c(C)ccc6[nH]ncc56)c(C5CC5)cc34)CC2)C1 [Compound 156] | < 300 nM | > 90%
8 | C=C(F)C(=O)N1CC2(CCN(c3nc(N4CC5(CCN(C)CC5)C4)nc4c(OCC(F)(F)F)c(-c5c(C)ccc6[nH]ncc56)c(C5CC5)cc34)CC2)C1 [Compound 78] | 300 to 1000 nM | 50 to 90%
9 | C=C(C(=O)N1CC2(CCN(c3nc(OC4CCN(CCOC)CC4)nc4c(OCC(F)(F)F)c(-c5c(C)ccc6[nH]ncc56)c(C5CC5)cc34)CC2)C1)n1cncn1 [Compound 23] | < 300 nM | > 90%
10 | C=CC(=O)N1CC2(CCN(c3nc(OC4CC5(C4)CN(CCOC)C5)nc4c(OCC(F)(F)F)c(-c5c(C)ccc6[nH]ncc56)c(C5CC5)cc34)CC2)C1 [Compound 125] | < 300 nM | > 90%
11 | C=C(F)C(=O)N1CC2(CCN(c3nc(OC4CN5CCC4CC5)nc4c(OCC(F)(F)F)c(-c5c(C)ccc6[nH]ncc56)c(C5CC5)cc34)CC2)C1 (centres unmarked) [Compound 151] | 300 to 1000 nM | > 90%
12 | C=C(F)C(=O)N1CC2(CCN(c3nc(N4CC5(CN(CCOC)C5)C4)nc4c(OCC(F)(F)F)c(-c5c(C)ccc6[nH]ncc56)c(C5CC5)cc34)CC2)C1 [Compound 72] | < 300 nM | > 90%
13 | C=CC(=O)N1CC2(CCN(c3nc(OC4CC5(C4)CN(C)C5)nc4c(OCC(F)(F)F)c(-c5c(C)ccc6[nH]ncc56)c(C5CC5)cc34)CC2)C1 [Compound 123] | < 300 nM | > 90%
14 | C=CC(=O)N1CC2(CCN(c3nc(OC4CCN(CCOC)CC4)nc4c(OCC(F)(F)F)c(-c5c(O)cccc5F)c(C5CC5)cc34)CC2)C1 [Compound 45] | < 300 nM | > 90%
15 | C=CC(=O)N1CC2(CCN(c3nc(N4CC5(CCN(CC(C)CC)CC5)C4)nc4c(OCC(F)(F)F)c(-c5c(C)ccc6[nH]ncc56)c(C5CC5)cc34)CC2)C1 (centres unmarked) [Compound 81] | < 300 nM | > 90%
16 | C=C(F)C(=O)N1CC2(CCN(c3nc(OC4CC5(CCN(C)CC5)C4)nc4c(OCC(F)(F)F)c(-c5c(C)ccc6[nH]ncc56)c(C5CC5)cc34)CC2)C1 [Compound 130] | < 300 nM | > 90%
17 | C=CC(=O)N1CC2(CCN(c3nc(N4CC(N5CC(OCC(F)(F)F)C5)C4)nc4c(OCC(F)(F)F)c(-c5c(C)ccc6[nH]ncc56)c(C5CC5)cc34)CC2)C1 [Compound 239] | 300 to 1000 nM | 50 to 90%
18 | C=C(F)C(=O)N1CC2(CCN(c3nc(N4CC5(CCN(CCOCC)CC5)C4)nc4c(OCC(F)(F)F)c(-c5c(C)ccc6[nH]ncc56)c(C5CC5)cc34)CC2)C1 [Compound 94] | < 300 nM | > 90%
19 | C=C(C(=O)N1CC2(CCN(c3nc(OC4CCN(CCOC)CC4)nc4c(OCC(F)(F)F)c(-c5c(C)ccc6[nH]ncc56)c(C5CC5)cc34)CC2)C1)c1cncnc1 [Compound 21] | < 300 nM | > 90%

More lines, main results first:

Row | IC50 [2] | Structure (SMILES) | inhibition at 1 µM [1]
20 | < 300 nM | C=CC(=O)N1CC2(CCN(c3nc(N4CCN(C5CCOCC5)CC4)nc4c(OCC(F)(F)F)c(-c5c(C)ccc6[nH]ncc56)c(C5CC5)cc34)CC2)C1 [Compound 154] | > 90%
21 | < 300 nM | C=CC(=O)N1CC2(CCN(c3nc(N4CC[C@H](N5CCOCC5)C4)nc4c(OCC(F)(F)F)c(-c5c(C)ccc6[nH]ncc56)c(C5CC5)cc34)CC2)C1 [Compound 209] | > 90%
22 | < 300 nM | C=CC(=O)N1CC2(CCN(c3nc(N4CC5(CC(N6CCC(C)C6)C5)C4)nc4c(OCC(F)(F)F)c(-c5c(C)ccc6[nH]ncc56)c(C5CC5)cc34)CC2)C1 (centres unmarked) [Compound 292] | > 90%
23 | < 300 nM | C=CC(=O)N1CC2(CCN(c3nc(N4CC(N5CCC(C)CC5)C4)nc4c(OCC(F)(F)F)c(-c5c(C)ccc6[nH]ncc56)c(C5CC5)cc34)CC2)C1 [Compound 268] | > 90%
24 | 300 to 1000 nM | C=CC(=O)N1CC2(CCN(c3nc(N4CC(N5CC[C@@H](C(C)(C)O)C5)C4)nc4c(OCC(F)(F)F)c(-c5c(C)ccc6[nH]ncc56)c(C5CC5)cc34)CC2)C1 [Compound 254] | > 90%
25 | < 300 nM | C=CC(=O)N1CC2(CCN(c3nc(N4CC(N5C[C@@H](C)[C@@H](OC)C5)C4)nc4c(OCC(F)(F)F)c(-c5c(C)ccc6[nH]ncc56)c(C5CC5)cc34)CC2)C1 [Compound 266] | > 90%
26 | < 300 nM | C=CC(=O)N1CC2(CCN(c3nc(N4CC(N5CCC[C@@H]5C)C4)nc4c(OCC(F)(F)F)c(-c5c(C)ccc6[nH]ncc56)c(C5CC5)cc34)CC2)C1 [Compound 246] | > 90%
27 | < 300 nM | C=CC(=O)N1CC2(CCN(c3nc(N4CC(N5CCC(F)CC5)C4)nc4c(OCC(F)(F)F)c(-c5c(C)ccc6[nH]ncc56)c(C5CC5)cc34)CC2)C1 [Compound 178] | > 90%
28 | 300 to 1000 nM | C=CC(=O)N1CC2(CCN(c3nc(N4CC[C@H](N5CCC(OC)CC5)C4)nc4c(OCC(F)(F)F)c(-c5c(C)ccc6[nH]ncc56)c(C5CC5)cc34)CC2)C1 [Compound 213] | 50 to 90%
29 | < 300 nM | C=CC(=O)N1CC2(CCN(c3nc(N4CC[C@@H](N(C)C)C4)nc4c(OCC(F)(F)F)c(-c5c(C)ccc6[nH]ncc56)c(C5CC5)cc34)CC2)C1 [Compound 186] | > 90%
30 | < 300 nM | C=CC(=O)N1CC2(CCN(c3nc(N4CCC(N5CCC5)CC4)nc4c(OCC(F)(F)F)c(-c5c(C)ccc6[nH]ncc56)c(C5CC5)cc34)CC2)C1 [Compound 215] | > 90%
31 | < 300 nM | C=CC(=O)N1CC2(CCN(c3nc(N4CC[C@H](N5CCC5)C4)nc4c(OCC(F)(F)F)c(-c5c(C)ccc6[nH]ncc56)c(C5CC5)cc34)CC2)C1 [Compound 181] | > 90%
